Data set [1] is described as follows: Potency index, ratio of trolox IC50 to compound IC50 for ABTS radical scavenging activity.
Data set [2] addresses Acetylcholinesterase (Electrophorus electricus) (UniProt O42275). Nature of the data set: Potency index, ratio of galantamine IC50 to compound IC50 for electric eel AChE.
In data set [3] the target is T1, Acetylcholinesterase (Electrophorus electricus, UniProt O42275).
Description: Inhibition of electric eel AChE using acetylthiocholine iodide as substrate preincubated for 5 mins followed by substrate addition measured after 5 mins by Ellman's method
The next data set has as its target Cholinesterase (Equus caballus, UniProt P81908).
For data set [4], the system named is SK-N-SH. Briefly: Neurotoxicity against human SK-N-SH cells assessed as cell viability at 160 uM after 24 hrs by MTT assay. It counts as toxicity, cell-based. Background: Tetrazolium dyes change colour on reduction, which living cells bring about.
Data set [5] relates to SK-N-SH. Briefly: Neurotoxicity against human SK-N-SH cells assessed as cell viability at 120 uM after 24 hrs by MTT assay. The class given is toxicity, cell-based.
The subject of data set [6] is SK-N-SH. Nature of the data set: Neuroprotective activity against H2O2-induced cell death in human SK-N-SH cells assessed as cell viability preincubated for 3 hrs followed by H202 challenge after 24 hrs by MTT assay. The class given is functional, cell-based.
Data set [7] has as its system SK-N-SH. Nature of the data set: Neurotoxicity against human SK-N-SH cells assessed as cell viability at 40 uM after 24 hrs by MTT assay. It counts as toxicity, cell-based.
Data set [8] deals with SK-N-SH. Nature of the data set: Neurotoxicity against human SK-N-SH cells assessed as cell viability at 80 uM after 24 hrs by MTT assay. It counts as toxicity, cell-based.
Data set [9] relates to SK-N-SH. Briefly: Neurotoxicity against human SK-N-SH cells assessed as cell viability at 200 uM after 24 hrs by MTT assay. The class given is toxicity, cell-based.
The test system of another data set is Mus musculus. Briefly: In vivo inhibition of AChE in ip dosed BALB/c ByJ mouse brain assessed as hydrolysis of acetylthiocholine iodide after 48 hrs by Ellman's method. The class given is functional, organism-based. For orientation: DTNB colorimetry detects thiols as they appear.
Data set [10] has as its target T1, Acetylcholinesterase. Nature of the data set: Mixed-type inhibition of electric eel AChE using acetylthiocholine iodide as substrate assessed as free enzyme preincubated for 5 mins followed by substrate addition measured over 6 mins by Lineweaver Burk plot analysis.
The target of data set [11] is T1, Acetylcholinesterase. Nature of the data set: Mixed-type inhibition of electric eel AChE using acetylthiocholine iodide as substrate assessed as enzyme-substrate complex preincubated for 5 mins followed by substrate addition measured over 6 mins by Lineweaver Burk plot analysis.

Molecules are shown by their SMILES. Calls of active or inactive are those of the source. The calls are words filed in the database; no cut-off is given here.

Chain of Acetylcholinesterase (Electrophorus electricus) (O42275 24-633 limits assumed): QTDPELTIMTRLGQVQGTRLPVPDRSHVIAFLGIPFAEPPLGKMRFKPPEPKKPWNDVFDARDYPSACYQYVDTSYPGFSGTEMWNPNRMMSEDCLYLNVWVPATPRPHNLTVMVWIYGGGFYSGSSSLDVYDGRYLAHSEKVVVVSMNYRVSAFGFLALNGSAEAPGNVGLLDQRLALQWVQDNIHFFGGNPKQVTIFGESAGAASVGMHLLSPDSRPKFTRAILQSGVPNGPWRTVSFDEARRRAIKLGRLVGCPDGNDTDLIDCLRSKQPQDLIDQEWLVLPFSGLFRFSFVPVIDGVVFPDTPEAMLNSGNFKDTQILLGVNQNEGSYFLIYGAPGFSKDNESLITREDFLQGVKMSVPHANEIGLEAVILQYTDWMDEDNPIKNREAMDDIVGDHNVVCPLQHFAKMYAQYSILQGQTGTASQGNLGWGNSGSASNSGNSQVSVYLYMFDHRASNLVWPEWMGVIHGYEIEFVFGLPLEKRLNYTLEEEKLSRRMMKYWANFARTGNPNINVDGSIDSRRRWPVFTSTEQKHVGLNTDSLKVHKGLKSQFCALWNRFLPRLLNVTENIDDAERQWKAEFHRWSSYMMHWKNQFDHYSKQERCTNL
Chain of Cholinesterase (P81908 whole entry): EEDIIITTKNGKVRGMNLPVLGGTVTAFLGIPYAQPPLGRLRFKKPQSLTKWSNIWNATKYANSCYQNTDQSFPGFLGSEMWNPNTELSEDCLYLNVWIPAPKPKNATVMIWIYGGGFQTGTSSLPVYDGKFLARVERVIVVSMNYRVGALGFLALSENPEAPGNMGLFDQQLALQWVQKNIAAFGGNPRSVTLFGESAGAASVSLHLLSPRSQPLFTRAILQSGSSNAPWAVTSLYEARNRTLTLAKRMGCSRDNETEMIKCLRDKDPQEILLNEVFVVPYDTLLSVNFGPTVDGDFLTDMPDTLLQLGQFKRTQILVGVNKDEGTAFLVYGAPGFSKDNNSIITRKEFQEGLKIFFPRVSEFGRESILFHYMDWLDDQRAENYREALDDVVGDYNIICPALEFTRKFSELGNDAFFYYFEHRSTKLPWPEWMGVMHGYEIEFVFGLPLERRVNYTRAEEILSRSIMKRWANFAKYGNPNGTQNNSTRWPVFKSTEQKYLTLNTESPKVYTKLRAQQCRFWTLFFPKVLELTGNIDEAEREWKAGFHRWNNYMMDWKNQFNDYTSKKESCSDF
T1 sequence (O42275 whole entry): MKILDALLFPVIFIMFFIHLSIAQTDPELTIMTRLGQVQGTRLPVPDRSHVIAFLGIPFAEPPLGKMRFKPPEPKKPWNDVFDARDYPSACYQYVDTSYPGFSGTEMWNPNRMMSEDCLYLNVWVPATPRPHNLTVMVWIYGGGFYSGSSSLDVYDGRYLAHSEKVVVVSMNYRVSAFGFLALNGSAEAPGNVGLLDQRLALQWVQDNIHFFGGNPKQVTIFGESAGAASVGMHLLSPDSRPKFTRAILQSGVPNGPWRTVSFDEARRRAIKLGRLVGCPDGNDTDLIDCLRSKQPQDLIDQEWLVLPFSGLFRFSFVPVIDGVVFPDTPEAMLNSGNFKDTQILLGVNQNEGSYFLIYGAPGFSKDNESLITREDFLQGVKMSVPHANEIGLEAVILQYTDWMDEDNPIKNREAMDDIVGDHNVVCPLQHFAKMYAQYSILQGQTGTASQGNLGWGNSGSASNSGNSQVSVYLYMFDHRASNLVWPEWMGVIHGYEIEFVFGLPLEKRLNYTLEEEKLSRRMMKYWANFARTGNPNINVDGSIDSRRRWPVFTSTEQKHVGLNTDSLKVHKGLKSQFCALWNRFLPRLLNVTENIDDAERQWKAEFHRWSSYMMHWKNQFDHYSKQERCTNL

`Cc1cc(=O)oc2c1ccc1oc(=N)c(C(=O)N3CCOCC3)cc12` displayed an IC50 of 11.3 µM. The Ratio IC50 in data set [1] amounted to 1.7. For the same compound, in data set [2], the Ratio IC50 was 2. This compound gave an IC50 against Acetylcholinesterase [3] of 0.115 µM.

Compound `Cc1cc(=O)oc2c1ccc1oc(=N)c(C(=O)NCc3ccccc3Br)cc12` displayed an IC50 of 11.9 µM. Besides, the IC50 on Cholinesterase is greater than 100 µM. The Activity entry in the data set on SK-N-SH [4] is “Non-toxic”. Further, in the data set with SK-N-SH [5], the Activity result was “Non-toxic”. The Ratio IC50 in data set [1] was found to be 1.7. The Ratio IC50 in [2] amounted to 2. In addition, the Activity result in the data set on SK-N-SH [6] was “Dose-dependent effect”. Further, in the data set on SK-N-SH [7], the Activity entry is “Non-toxic”. This compound also displayed an IC50 on Acetylcholinesterase [3] of 0.016 µM. Moreover, the Activity result in the data set on SK-N-SH [8] is “Non-toxic”. In the data set with SK-N-SH [9], the Activity result is on record as “Non-toxic”.

With `Cc1cc(=O)oc2c1ccc1oc(=N)c(C(=O)NC(c3ccccc3)c3ccccc3)cc12`, the IC50 was greater than 50 µM. In data set [2], the Ratio IC50 is 2. At Acetylcholinesterase [3], this compound returned an IC50 of 0.09 µM.

Consider `Cc1cc(=O)oc2c1ccc1oc(=N)c(C(=O)NC3CC3)cc12`, for which the IC50 is greater than 50 µM. This compound registered an IC50 against Cholinesterase of 38.9 µM. Besides, at Acetylcholinesterase [3], the IC50 was determined as 0.91 µM.

For `Cc1cc(=O)oc2c1ccc1oc(=N)c(C(=O)NCc3cccc(Cl)c3)cc12`, the midpoint of inhibition, the IC50, lay at 10.3 µM. In addition, the IC50 against Cholinesterase is greater than 100 µM. The Activity entry in the data set on SK-N-SH [4] is listed as “Non-toxic”. Moreover, in the data set with SK-N-SH [5], the Activity result is given as “Non-toxic”. The Ratio IC50 in data set [1] is 1.7. The Ratio IC50 in data set [2] worked out at 2. Moreover, the Activity entry with SK-N-SH [6] was “Dose-dependent effect”. The Activity result with SK-N-SH [7] is recorded as “Non-toxic”. The same compound showed an IC50 at Acetylcholinesterase [3] of 0.019 µM. Also, the Activity result with SK-N-SH [8] is listed as “Non-toxic”. Also, the Activity entry with SK-N-SH [9] is reported as “Non-toxic”.

`CCNC(=O)c1cc2c(ccc3c(C)cc(=O)oc32)oc1=N` showed an IC50 greater than 50 µM. Further, the IC50 at Cholinesterase was found to be 11.3 µM. In addition, the Ratio IC50 in data set [2] worked out at 2. Besides, 0.294 µM corresponded to half-maximal inhibition on Acetylcholinesterase [3] (IC50).

In turn, `Cc1cc(=O)oc2c1ccc1oc(=N)c(C(=O)NC(C)c3ccccc3)cc12` (stereo unspecified) gave an IC50 of 14.1 µM. Further, at Cholinesterase, the 50% inhibitory concentration (IC50) was 35.8 µM. In [1], the Ratio IC50 came to 1.7. Moreover, the Ratio IC50 in [2] turned out to be 2. The compound also yielded an IC50 against Acetylcholinesterase [3] of 0.247 µM.

Turning to `CNC(=O)c1cc2c(ccc3c(C)cc(=O)oc32)oc1=N`, the IC50 was determined as 34.2 µM. The compound also yielded an IC50 against Cholinesterase greater than 100 µM. In addition, the IC50 at Acetylcholinesterase [3] was found to be 1.4 µM.

`COc1ccccc1OCCNC(=O)c1cc2c(ccc3c(C)cc(=O)oc32)oc1=N` had an IC50 of 13 µM. This compound also yielded an IC50 against Cholinesterase of 24.8 µM. At Acetylcholinesterase [3], this compound came in with an IC50 of 2.6 µM.

Regarding `COc1ccc(CNC(=O)c2cc3c(ccc4c(C)cc(=O)oc43)oc2=N)c(OC)c1`, the IC50 was greater than 50 µM. The same compound returned an IC50 at Cholinesterase greater than 100 µM. The Ratio IC50 in data set [2] is 2. At Acetylcholinesterase [3], this compound displayed an IC50 of 0.357 µM.

On to `Cc1cc(=O)oc2c1ccc1oc(=N)c(C(=O)NCc3ccc(C(C)(C)C)cc3)cc12`, for which the IC50 came to 13.4 µM. The midpoint of inhibition at Cholinesterase, the IC50, lay at 57.9 µM. The Activity result in the data set on SK-N-SH [4] is given as “Toxic”. Moreover, the Activity result with SK-N-SH [5] was “Toxic”. For the same compound, in [1], the Ratio IC50 is 1.7. In data set [2], the Ratio IC50 stood at 2. The Activity entry in the data set on SK-N-SH [6] is “Dose-dependent effect”. In addition, in the data set with SK-N-SH [7], the Activity result is reported as “Toxic”. At Acetylcholinesterase [3], the IC50 is 0.01 µM. The Activity result in the data set on SK-N-SH [8] is “Toxic”. Moreover, the Activity entry with SK-N-SH [9] is “Toxic”.

`Cc1cc(=O)oc2c1ccc1oc(=N)c(C(=O)NCc3ccccc3)cc12` displayed an IC50 greater than 50 µM. Also, on Cholinesterase, the IC50 was greater than 100 µM. In [2], the Ratio IC50 is 2. Moreover, the IC50 on Acetylcholinesterase [3] is 2.13 µM.

With `Cc1cc(=O)oc2c1ccc1oc(=N)c(C(=O)N3CCCC3)cc12`, the IC50 was greater than 50 µM. For the same compound, the IC50 against Cholinesterase came to 73.1 µM. For the same compound, the Ratio IC50 in data set [2] stood at 2. Besides, the IC50 on Acetylcholinesterase [3] was found to be 0.984 µM.

In turn, `COc1ccc(C(C)NC(=O)c2cc3c(ccc4c(C)cc(=O)oc43)oc2=N)cc1` (stereo unspecified) yielded a half-maximal inhibitory concentration (IC50) of 9.04 µM. The Ratio IC50 in [1] turned out to be 1.7. On Acetylcholinesterase [3], this compound showed an IC50 of 1.9 µM.

`Cc1c(C)c2c(c(C)c1O)CCC(C)(C(=O)O)O2` (stereo unspecified) [TROLOX] showed an IC50 of 27.4 µM.

In turn, `Cc1cc(=O)oc2c1ccc1oc(=N)c(C(=O)NCc3cccc(Br)c3)cc12` had an IC50 of 7.98 µM. The IC50 against Cholinesterase is greater than 100 µM. The Activity result with SK-N-SH [4] is given as “Toxic”. The Activity entry in the data set with SK-N-SH [5] is recorded as “Toxic”. Also, in data set [1], the Ratio IC50 was 1.7. Further, the inhibition result in the data set on Mus musculus is “Active”. Also, the Ki on Acetylcholinesterase [10] is 0.0103 µM. Moreover, in [2], the Ratio IC50 came out at 2. Moreover, in the data set on SK-N-SH [6], the Activity result was “Dose-dependent effect”. In the data set on SK-N-SH [7], the Activity result was “Toxic”. Besides, the midpoint of inhibition against Acetylcholinesterase [3], the IC50, lay at 0.003 µM. The Activity result in the data set with SK-N-SH [8] is reported as “Toxic”. In addition, in the data set on SK-N-SH [9], the Activity entry is on record as “Toxic”. Also, the Ki on Acetylcholinesterase [11] amounted to 0.0193 µM.

As for `Cc1cc(=O)oc2c1ccc1oc(=N)c(C(=O)Nc3ccccc3[N+](=O)[O-])cc12`, the IC50 was greater than 50 µM. This compound also showed an IC50 at Cholinesterase greater than 100 µM. In addition, the Ratio IC50 in data set [2] worked out at 2. For the same compound, it took 0.226 µM to reach half-maximal inhibition on Acetylcholinesterase [3] (IC50).

For the compound `Cc1cc(=O)oc2c1ccc1oc(=N)c(C(=O)NCc3ccccc3Cl)cc12`, the IC50 was found to be 16 µM. This compound registered an IC50 on Cholinesterase greater than 100 µM. The Activity result with SK-N-SH [4] was “Non-toxic”. The Activity result in the data set with SK-N-SH [5] is recorded as “Non-toxic”. In [1], the Ratio IC50 was 1.7. In addition, the Ratio IC50 in data set [2] came out at 2. Also, in the data set on SK-N-SH [6], the Activity result is “Dose-dependent effect”. For the same compound, the Activity result with SK-N-SH [7] is “Non-toxic”. Also, on Acetylcholinesterase [3], the IC50 amounted to 0.012 µM. In the data set with SK-N-SH [8], the Activity entry is listed as “Non-toxic”. In addition, the Activity result with SK-N-SH [9] is listed as “Non-toxic”.

For `Cc1cc(=O)oc2c1ccc1oc(=N)c(C(=O)NC3CCCCC3)cc12`, the IC50 is greater than 50 µM. The compound further had an IC50 on Cholinesterase of 42 µM. Also, the Ratio IC50 in data set [2] worked out at 2. In addition, at Acetylcholinesterase [3], the IC50 worked out at 0.027 µM.

On to `CCCCCCCCCCCCNC(=O)c1cc2c(ccc3c(C)cc(=O)oc32)oc1=N`, for which the IC50 was greater than 50 µM. The compound further came in with an IC50 against Cholinesterase greater than 100 µM. Further, the Ratio IC50 in data set [2] is 2. Besides, the midpoint of inhibition against Acetylcholinesterase [3], the IC50, lay at 0.022 µM.

What is called IC50 is the point on the concentration scale where inhibition reaches its midpoint. Low values mean greater potency in that assay, high ones weaker potency in that assay. A word on the Ki: it is the equilibrium dissociation constant of an inhibitor or competing ligand from its target.
